Format in all cases: functional
Test [1] deals with Bacillus subtilis. The test is described as follows: Antibacterial activity against Bacillus subtilis MTCC 121 at 50 ug/ml by cup plate method. The conditions noted are these: read-out: DIZ.
Test [2] relates to Escherichia coli. The test is described as follows: Antibacterial activity against Escherichia coli MTCC 739 at 100 ug/ml by cup-plate method. The conditions noted are these: for zone of inhibition at 100 µg/mL: read-out: DIZ.
For test [3], the system named is Staphylococcus aureus. The test is described as follows: Antibacterial activity against Staphylococcus aureus MTCC 96 at 200 ug/ml by cup-plate method. The conditions noted are these: read-out: DIZ.
The subject of test [4] is Bacillus subtilis. The test is described as follows: Antibacterial activity against Bacillus subtilis MTCC 121 at 300 ug/ml by cup plate method. The conditions noted are these: read-out: DIZ.
Test [5] deals with Pseudomonas aeruginosa. The test can be described thus: Antibacterial activity against Pseudomonas aeruginosa MTCC 2453 at 300 ug/ml by cup-plate method. Particulars: for zone of inhibition at 300 µg/mL: read-out: DIZ.
Test [6] deals with Pseudomonas aeruginosa. The test is described as follows: Antibacterial activity against Pseudomonas aeruginosa MTCC 2453 at 100 ug/ml by cup-plate method. Particulars: for zone of inhibition at 100 µg/mL: read-out: DIZ.
Test [7] concerns Escherichia coli. The test is described as follows: Antibacterial activity against Escherichia coli MTCC 739 at 50 ug/ml by cup-plate method. Particulars: for zone of inhibition at 50 µg/mL: read-out: DIZ.
In test [8] the test system is Candida albicans. The test is described as follows: Antifungal activity against Candida albicans MTCC 227 at 100 ug/ml by cup-plate method.
The subject of test [9] is Escherichia coli. The test can be described thus: Antibacterial activity against Escherichia coli MTCC 739 at 200 ug/ml by cup-plate method. The conditions noted are these: for zone of inhibition at 200 µg/mL: read-out: DIZ.
The test system of test [10] is Staphylococcus aureus. The test can be described thus: Antibacterial activity against Staphylococcus aureus MTCC 96 at 100 ug/ml by cup-plate method. Particulars: read-out: DIZ.
The test system of test [11] is Staphylococcus aureus. The test is described as follows: Antibacterial activity against Staphylococcus aureus MTCC 96 at 300 ug/ml by cup-plate method. The conditions noted are these: read-out: DIZ.
Test [12] relates to Bacillus subtilis. The test is described as follows: Antibacterial activity against Bacillus subtilis MTCC 121 at 100 ug/ml by cup plate method. Particulars: read-out: DIZ.
For test [13], the system named is Escherichia coli. The test can be described thus: Antibacterial activity against Escherichia coli MTCC 739 at 300 ug/ml by cup-plate method. Particulars: for zone of inhibition at 300 µg/mL: read-out: DIZ.
Test [14] relates to Candida albicans. The test can be described thus: Antifungal activity against Candida albicans MTCC 227 at 200 ug/ml by cup-plate method.
In test [15] the test system is Candida albicans. The test can be described thus: Antifungal activity against Candida albicans MTCC 227 at 300 ug/ml by cup-plate method.
Test [16] has as its system Pseudomonas aeruginosa. The test can be described thus: Antibacterial activity against Pseudomonas aeruginosa MTCC 2453 at 200 ug/ml by cup-plate method. Particulars: for zone of inhibition at 200 µg/mL: read-out: DIZ.
In test [17] the test system is Staphylococcus aureus. The test is described as follows: Antibacterial activity against Staphylococcus aureus MTCC 96 at 50 ug/ml by cup-plate method. Particulars: read-out: DIZ.
For test [18], the system named is Bacillus subtilis. The test can be described thus: Antibacterial activity against Bacillus subtilis MTCC 121 at 200 ug/ml by cup plate method. The conditions noted are these: read-out: DIZ.
Test [19] concerns Pseudomonas aeruginosa. The test can be described thus: Antibacterial activity against Pseudomonas aeruginosa MTCC 2453 at 50 ug/ml by cup-plate method. Particulars: for zone of inhibition at 50 µg/mL: read-out: DIZ.
The test system of test [20] is Candida albicans. The test is described as follows: Antifungal activity against Candida albicans MTCC 227 at 50 ug/ml by cup-plate method.

The structures appear in SMILES notation. The source made the active and inactive calls. The calls are words filed in the database; no cut-off is given here.

The text below walks through data of ChEMBL document CHEMBL3044740, “Syntheses and evaluation of 2,5-disubstituted 4-thiazolidinone analogues as antimicrobial agents” (2012).

With `O=C1N/C(=N\c2ccccc2[N+](=O)[O-])S/C1=C\c1cccc([N+](=O)[O-])c1`, the zone of inhibition at 50 µg/mL in test [1] was 7 mm; in [7], 10 mm; in [17], 8 mm; in test [19], 10 mm; in test [20] (read-out: DIZ) it was 10 mm. Further, the zone of inhibition at 100 µg/mL was determined as 8 mm in test [2]; 11 mm in [6]; 12 mm in test [8] (read-out: DIZ); 10 mm in test [10]; 15 mm in [12]. Moreover, the zone of inhibition at 200 µg/mL in test [3] came out at 14 mm; in test [9], 13 mm; in test [14] (read-out: DIZ), 14 mm; in test [16], 15 mm; in test [18] it was 20 mm. In addition, the zone of inhibition at 300 µg/mL in test [4] was 22 mm; in test [5] it was 16 mm; in test [11], 16 mm; in [13], 15 mm; in test [15] (read-out: DIZ) it was 16 mm.
As to `COc1cc(/C=C2\S/C(=N/c3ccc([N+](=O)[O-])cc3)NC2=O)ccc1O`, the zone of inhibition at 50 µg/mL was 11 mm in test [1], 11 mm in [7], 14 mm in test [17] and 14 mm in test [19]. Moreover, the zone of inhibition at 100 µg/mL in test [2] came to 12 mm; in [6], 15 mm; in test [10] it was 15 mm; in test [12], 12 mm. Moreover, the zone of inhibition at 200 µg/mL in test [3] was found to be 16 mm; in test [9] it was 12 mm; in test [16], 15 mm; in [18] it was 14 mm. Besides, the zone of inhibition at 300 µg/mL is 15 mm in test [4], 17 mm in [5], 17 mm in test [11] and 13 mm in [13]. For the same compound, the “diameter of the inhibition zone (DIZ)” value in test [8], in test [14], in test [15] and in test [20] was “inactive” in each case.
For the compound `O=C1N/C(=N\c2ccc([N+](=O)[O-])cc2)S/C1=C\c1ccc(Cl)cc1`, the zone of inhibition at 50 µg/mL in test [1] is 15 mm; in [7], 15 mm; in [17], 13 mm; in [19], 11 mm. The zone of inhibition at 100 µg/mL was determined as 16 mm in [2], 12 mm in test [6], 14 mm in test [10] and 16 mm in test [12]. Besides, the zone of inhibition at 200 µg/mL in [3] is 15 mm; in test [9], 16 mm; in test [16] it was 13 mm; in [18], 17 mm. Moreover, the zone of inhibition at 300 µg/mL in test [4] came out at 18 mm; in test [5] it was 14 mm; in test [11] it was 17 mm; in test [13] it was 18 mm. The “diameter of the inhibition zone (DIZ)” value in [8], in [14], in test [15] and in test [20] was “inactive” throughout.
As for `O=C1N/C(=N\c2ccc([N+](=O)[O-])cc2)S/C1=C\c1ccccc1Cl`, the zone of inhibition at 50 µg/mL in [1] turned out to be 13 mm; in test [7], 13 mm; in [17], 15 mm; in [19] it was 13 mm. For the same compound, the zone of inhibition at 100 µg/mL was determined as 14 mm in test [2], 14 mm in [6], 16 mm in [10] and 14 mm in test [12]. Also, the zone of inhibition at 200 µg/mL in [3] is 17 mm; in [9] it was 15 mm; in test [16] it was 16 mm; in test [18] it was 15 mm. Further, the zone of inhibition at 300 µg/mL in test [4] stood at 17 mm; in [5], 17 mm; in [11] it was 19 mm; in test [13], 16 mm. Besides, the “diameter of the inhibition zone (DIZ)” value in test [8], in test [14], in [15] and in test [20] was “inactive” each time.
For `O=C1N/C(=N\c2ccc([N+](=O)[O-])cc2)S/C1=C\c1ccc(O)cc1`, the zone of inhibition at 50 µg/mL in test [1] came out at 11 mm; in [7], 11 mm; in test [17] it was 11 mm; in test [19] it was 10 mm. Besides, the zone of inhibition at 100 µg/mL in test [2] was found to be 12 mm; in test [6], 11 mm; in test [10] it was 12 mm; in [12], 12 mm. Further, the zone of inhibition at 200 µg/mL is 13 mm in [3], 13 mm in test [9], 11 mm in [16] and 14 mm in [18]. The zone of inhibition at 300 µg/mL was 15 mm in [4], 12 mm in [5], 15 mm in test [11] and 15 mm in test [13]. In addition, the “diameter of the inhibition zone (DIZ)” value in test [8], in test [14], in [15] and in test [20] was “inactive” throughout.
In the case of `O=C1N/C(=N\c2ccccc2[N+](=O)[O-])S/C1=C\c1ccc(O)cc1`, the zone of inhibition at 50 µg/mL in test [1] and in test [17] was 10 mm in each case. For the same compound, the “diameter of the inhibition zone (DIZ)” value in test [2], in test [5], in [6], in [7], in [8] and in [9] was “inactive” each time. Moreover, the “diameter of the inhibition zone (DIZ)” value in [13], in [14], in [15], in test [16], in test [19] and in test [20] was “inactive” each time. Besides, the zone of inhibition at 200 µg/mL in test [3] and in test [18] was 10 mm in each case. Besides, the zone of inhibition at 300 µg/mL in test [4] and in test [11] was 11 mm throughout. The zone of inhibition at 100 µg/mL in [10] and in [12] was 10 mm throughout.
